The subject of assay [1] is HepG2 cells. Put plainly: rescue of CH004-induced loss of viability by cell death inhibitors (CellTiter 96). The format is cell-based, human. The following applies: 100 µM DFO, 48 h or 72 h. How it is done: To measure cell viability and cytotoxicity, HepG2, HEK293T, Huh-7, H22, Panc-28, HCT116 and MDA-MB-231 cells were seeded at a density of ~ 2 × 10^4 cells per well in 96-well plates (Coring, NY, USA) for one day, followed by incubation with DMSO or various concentrations of tested compound for indicated times. Then, the cells were collected to measure the cell viability using the CellTiter 96® Aqueous One Solution Cell Proliferation Assay (Promega, G3581) according to the standard protocols.
Figure S15. The mode of actions for CH004 in cells. […] Indicated HEK293T stable cell lines were treated with CH004 at a concentration of 10 µM for 24 h, and the cell viability was then measured using the CellTiter96® Aqueous One Solution Cell Proliferation Assay (Promega). Means ± SDs (n=3). (B-C) CH004 or erastin triggers ferroptosis in mouse embryonic fibroblasts (MEF). WT MEF cells were treated with CH004 or erastin at indicated concentrations in the presence or the absence of 500 µM DFO for 24 h before measuring the lipid ROS with 2 μM BODIPY® 581/591 C11 (Materials and methods). […] The cell viability was accordingly quantified using the CellTiter96® Aqueous One Solution Cell Proliferation Assay (Promega) and the results were shown as percentages of DMSO (control, 100%). […]

Assay [2] deals with HepG2 cells. The experiment in a line: lipid ROS (BODIPY 581/591 C11, flow cytometry). The format is cell-based, human. The following applies: 24 h; for accumulation of lipid ROS in HepG2 cells: up to 15 μM. How it is done: (§1) To detect lipid peroxidation upon treatment with CH004, HepG2 cells or mouse embryonic fibroblasts (MEF) were seeded in 12-well plates with ~ 1.8 × 10^5 cells per well for 24 h. After treatment with the inhibitor for another 24 h, cells were stained with BODIPY® 581/591 C11 (Invitrogen) for 1 h at a final concentration of 2 μM at 37 °C[57]. The cells were then resuspended in an appropriate amount of PBS after being washed once with PBS. Lipid peroxidation, i.e., lipid ROS, was analyzed by detection of the fluorescence using an LSR Fortessa flow cytometer. The data were recorded at 530/30 nm (green fluorescent) and 670/30 nm (red fluorescent) wavelengths after excitation at 488 nm. A minimum of 20000 events was used for the analysis. All the experiments were independently repeated twice in triplicate.
Figure S15. The mode of actions for CH004 in cells. […] Indicated HEK293T stable cell lines were treated with CH004 at a concentration of 10 µM for 24 h, and the cell viability was then measured using the CellTiter96® Aqueous One Solution Cell Proliferation Assay (Promega). Means ± SDs (n=3). (B-C) CH004 or erastin triggers ferroptosis in mouse embryonic fibroblasts (MEF). WT MEF cells were treated with CH004 or erastin at indicated concentrations in the presence or the absence of 500 µM DFO for 24 h before measuring the lipid ROS with 2 μM BODIPY® 581/591 C11 (Materials and methods). […] Erastin at micromolar concentrations were incubated with HepG2 cells for 24 h before measuring the lipid ROS (see above and Materials and methods). […] Means ± SDs (n=3). […] CH004 or erastin at a concentration of 20 µM was incubated with HepG2 cells for 48 h or 72 h in the presence or the absence of 100 µM DFO. The cell viability was accordingly quantified using the CellTiter96® Aqueous One Solution Cell Proliferation Assay (Promega) and the results were shown as percentages of DMSO (control, 100%). Means ± SDs (n=3). All the experiments were independently repeated at least twice and one representative result is present. Table S1 The inhibitory effects of CH004 on purified hCBS, hCSE and hDDC.

Assay [3] has as its system HepG2 cells. Put plainly: cell viability (CellTiter 96 Aqueous One). Particulars: 20 μM, 48 h or 72 h. The format is cell-based, human. The protocol: Fig. 4 CH004 arrests the cell cycle at the S phase. a CH004 reduces the cell viability of HEK293T and HepG2 cells. HEK293T or HepG2 cells were treated with indicated concentrations of CH004 for 24 h before the cell number was analyzed using the CellTiter96® Aqueous One Solution Cell Proliferation Assay (Promega, Materials and Methods). The means at each concentration of one representative experiment are shown as percentages of DMSO (control, 100%). Means ± SDs (n = 3). b Overexpression of hCBS or knock-down of hCBS counteracts the growth inhibition exerted by CH004 in HEK293T cells. Indicated HEK293T stable cell lines were treated with the CH004 or DMSO for 24 h. Then, the cell viability was quantified with the CellTiter 96® Aqueous One Solution Cell Proliferation Assay under the standard protocol (Promega). The means at each concentration are shown as percentages of their respective DMSO controls (100%). Means ± SDs (n = 3). The efficacy for CBS overexpression and knock-down in HEK293T cells was determined by Western blotting using an anti-CBS antibody (3E1, 1:2000; Abnova). c CH004 induces cell death in HEK293T and HepG2 cells. […] The means of percentages of dead cells (DMSO, 100%) from three independent samples are shown in d. Means ± SDs (n = 3). e, f Pharmacological inhibition or genetic knock-down of hCBS in HEK293T cells arrests the cell cycle at S phase. HEK293T cells were incubated with indicated compounds for 12 h, and the DNA content was quantified with propidium iodide to analyze the cell cycle distribution by flow cytometry (e). The cell cycle distributions for HEK293T-shNT and HEK293T-shCBS cells were accordingly analyzed and are shown in f. One representative diagram is shown for each condition. The mean percentages of various cell phases from three independent samples are shown in the respective right panels. Means ± SDs (n = 3). […]
Figure S15. […] Indicated HEK293T stable cell lines were treated with CH004 at a concentration of 10 µM for 24 h, and the cell viability was then measured using the CellTiter96® Aqueous One Solution Cell Proliferation Assay (Promega). […]

The subject of assay [4] is mouse embryonic fibroblasts (MEF). Put plainly: lipid ROS (BODIPY 581/591 C11, flow cytometry). The class given is cell-based. Particulars: low micromolar concentrations, 24 h. How it is done:
as §1
Figure S15. The mode of actions for CH004 in cells. […] Indicated HEK293T stable cell lines were treated with CH004 at a concentration of 10 µM for 24 h, and the cell viability was then measured using the CellTiter96® Aqueous One Solution Cell Proliferation Assay (Promega). Means ± SDs (n=3). (B-C) CH004 or erastin triggers ferroptosis in mouse embryonic fibroblasts (MEF). […] The cell viability was accordingly quantified using the CellTiter96® Aqueous One Solution Cell Proliferation Assay (Promega) and the results were shown as percentages of DMSO (control, 100%). […]
A general note: Flow cytometry measures light scatter and fluorescence of single cells or particles in a stream.

Results on two molecules are retold here after PMC6158189, “A pharmacological probe identifies cystathionine β-synthase as a new negative regulator for ferroptosis” (Cell Death & Disease, 2018).

On to `CC(=O)N(O)CCCCCNC(=O)CCC(=O)N(O)CCCCCNC(=O)CCC(=O)N(O)CCCCCN` [deferoxamine], for which the “rescue of cell death caused by 20 µM CH004” value in assay [1] was “partially rescues”. Besides, the “reduction of lipid ROS caused by 10 μM CH004” value in assay [2] (500 μM deferoxamine, HepG2) was “almost completely reduced”.

As for `CCOc1ccccc1-n1c(C(C)N2CCN(C(=O)COc3ccc(Cl)cc3)CC2)nc2ccccc2c1=O` (stereo not drawn) [erastin, reference compound], the “cell death in HepG2 cells” value in assay [3] was “did not trigger”. In addition, the “accumulation of lipid ROS in HepG2 cells” value in assay [2] was “did not trigger”; in assay [2] (listed as Erastin) it was “does not induce ferroptosis”. Moreover, the “induction of ferroptosis (lipid ROS) in MEF” value in assay [4] is on record as ~ 3 fold.
